The values below come from patent US7855076B2, “Use of discoidin domain receptor 1 (DDR1) and agents that affect the DDR1/collagen pathway” (The United States of America as represented by the …, priority 2002, dated 2010).

What all share (type): cell-based, human
One assay concerns DDR1. Kind of assay: DDR1 autophosphorylation and MAP kinase phosphorylation in iDC and mDC. To be noted: DCs, TNF-α stimulation. The procedure: To measure the kinetics of DDR1autophosphorylation, 1×10^7 iDC or TNF-α-induced mDCs were plated on dishes, serum-starved in RPMI 1640 containing 1% FCS for 10 hours, and subsequently activated with agonistic anti-DDR1 IgM (5 μg/ml) or control IgM (5 ug/ml) for varous times. Cell lysates were prepared, DDR1 was immunoprecipitated using anti-DDR1 Ab (C-20), and tyrosine-phosphorylation of DDR1 was analyzed by Western blotting using a mouse monoclonal anti-phosphotyrosine IgG and a sheep anti-mouse IgG coupled with horseradish peroxidase. Peroxidase activity was visualized by the Enhanced Chemiluminescence Detection System (Amersham).
Sequence of DDR1 (Q08345 19-417 limits assumed): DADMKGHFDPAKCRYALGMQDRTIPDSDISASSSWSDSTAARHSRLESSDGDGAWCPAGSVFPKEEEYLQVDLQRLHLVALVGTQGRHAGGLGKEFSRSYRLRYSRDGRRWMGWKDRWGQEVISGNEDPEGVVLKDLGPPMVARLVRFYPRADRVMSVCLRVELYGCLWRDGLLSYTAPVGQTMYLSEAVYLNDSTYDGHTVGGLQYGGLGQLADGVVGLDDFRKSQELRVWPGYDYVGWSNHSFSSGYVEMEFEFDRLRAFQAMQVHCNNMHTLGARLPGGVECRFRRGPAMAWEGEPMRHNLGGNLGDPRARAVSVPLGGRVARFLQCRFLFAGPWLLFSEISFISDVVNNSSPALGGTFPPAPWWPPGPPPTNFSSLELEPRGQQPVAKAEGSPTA
To detect phosphorylation of MAP kinases, ATF2, or MKK3/6, iDC and mDC were activated with agonistic 513 anti-DDR1 IgM or control IgM for varous times. Since TNF-α is known to activate p38 MAP kinase (Ono and Han, Cell. Signal. 12:1-13, 2000), cells were washed 6 times with PBS before activation in order to minimize the effect of TNF-α. Twenty μl of cell lysates were directly mixed with 20 μl of sample buffer and then analyzed.

The subject of the next assay is DDR1 mRNA. Kind of assay: DDR1 mRNA expression in PBMC by Northern blotting. To be noted: 8 hours, TNF-α 5 ng/ml, IL-1β 10 ng/ml, IFN-γ 50 U/ml, GM-CSF 10 ng/ml, LPS 1 μg/ml, PHA 5 μg/ml. The procedure:
PMN and PBMC were maintained at a density of 5×10^6 cells/ml in the complete medium in six-well tissue culture cluster (Coster, Cambridge, Mass.; 3 ml/well). Total RNA was extracted from each culture by using TRIZOL® Reagent. PolyA mRNA was purified on Oligotex columns (Qiagen, Valencia, Calif.). Northern blot analysis was performed as described (Yoshimura, J. Immunol. 150:5025, 1993), except that ULTRAhyb (Ambion) was used. A human DDR1 cDNA (757-bp) was obtained by PCR from a U-105 human glioblastoma cell line cDNA library and was ligated into the EcoRI/HindIII site of the pBluescript (Stratagene, La Jolla, Calif.). The sense primer was 5′-[…]-3′ (SEQ ID NO: 2; corresponding to residues between 68 and 87 in the nucleotide sequence of the trkE cDNA, GenBank accession number X74979) and the antisense primer was 5′-[…]-3′ (SEQ ID NO: 3; corresponding to residues between 805 and 824 in the nucleotide sequence of the trkE cDNA).
Freshly isolated PBMC expressed only a low level of DDR1 mRNA. The expression level was increased about eightfold when the cells were incubated in either RPMI 1640 or RPMI 1640 containing 10% FCS.

The next assay relates to p38 MAP kinase. Kind of assay: Phosphorylation of p38 MAP kinase in PMA-treated THP-1 cells, Western blotting. The procedure:
Parental, mock, DDR1a- or DDR1b-overexpressing THP-1 cells were plated at 5×10^6/ml on uncoated tissue culture plates and stimulated with PMA (10 nM) for 24 hours, and then starved in RMPI 1640 without FCS for 10 hours. Subsequently cells were washed three times with PBS, and then incubated in the presence of 50 μg/ml collagen type I for various times.
Ten million cells were lysed on ice for 20 minutes in a buffer containing 50 mM NaCl, 20 mM Tris-HCl, 50 mM sodium fluoride, 30 mM Na4P2O7, 5 mM EGTA, 3 mM sodium orthovanadate, 1% Triton X-100, 1 mg/ml leupeptin, 1 mM PMSF, 1 mg/ml aprotinin, 1 mg/ml pepstatinA and 100 μM sodium orthovanadate treated with H2O2. A lysis buffer containing 150 mM NaCl, 50 mM HEPES, 1% Triton-X 10% glycerol, 1 mM sodium fluoride, 1 mM EDTA, 2 mM sodium orthovanadate, 1 mg/ml leupeptin, 1 mM PMSF, 1 mg/ml aprotinin, 1 mg/ml pepstatinA and 100 μM sodium orthovanadate treated with H2O2, was also used for immunoprecipitation with anti-Shc Ab. The lysates were spun in a microcentrifuge for 20 minutes and the supernatants were collected. […]
Eluted proteins were analyzed on 8% polyacrylamide gels by SDS-PAGE and transferred electrophoretically to nitrocellulose membranes at 150 mA for 1 hour by a semi-dry system. […] To detect phosphorylated or nonphosphorylated p38 MAP kinase or ATF-2, 20 μl of cell lysates were directly mixed with 20 μl of sample buffer and then analyzed.
Downstream signaling molecules that may play a role in the up-regulation of HLA-DR in collagen-activated PMA-treated DDR1b-overexpressing cells were identified in the following manner. […] Phosphorylation of p38 MAP kinase was first detected 30 minutes after collagen activation of DDR1b-overexpressing cells and the level of phosphorylation increased thereafter. […] Phosphorylation of p38 MAP kinase was not detected in DDR1a-overexpressing cells up to 120 minutes. […] Phosphorylation of other members of the MAP kinase family, ERK1, ERK2, and JNK could not be detected in collagen-activated PMA-treated DDR1b-overexpressing cells. […]

On to TNF-α, for which the “activation of ERK1, ERK2, JNK, MKK3/6” value in the assay with DDR1 was “rapidly activated”. Also, the “level of DDR1 mRNA expression” value in the assay with DDR1 mRNA is “further augmented”.
In the case of collagen, the “phosphorylation of p38 MAP kinase” value in the assay with p38 MAP kinase (DDR1a-overexpressing cells, up to 120 minutes) is recorded as “not detected”. Moreover, the “time phosphorylation of p38 MAP kinase first detected” value in the assay with p38 MAP kinase (DDR1b-overexpressing cells) came out at 30 min.
